System: skin (moisture, wrinkle, collagen density)
Assay: Comparison of different functional components for skin-improving efficacy
Type: in vivo, human
From the text: In addition to the Crassocephalum rabens extract of the present invention, some other commercially available materials were collected, including oral hyaluronic acid (for continuous use of 20 days), ceramide, and collagen (for continuous use of 6 weeks), to compare their effects in maintaining skin hydrated, reducing wrinkles, and increasing collagen.

ceramide
Moisture (%) (no duration of use printed): +2.7% | Wrinkle (%) (no duration of use printed): −5.8%

collagen
Moisture (%) (continuous use of 6 weeks): +25.5% | Wrinkle (%) (continuous use of 6 weeks): No significant

hyaluronic acid [Oral hyaluronic acid]
Moisture (%) (continuous use of 20 days): +21.5% | Wrinkle (%) (continuous use of 20 days): −12.5%

— patent US20230390183A1, “METHOD FOR IMPROVING SKIN CONDITION BY CRASSOCEPHALUM RABENS EXTRACT” (Greenyn Biotechnology Co., Ltd, priority 2022, published 2023)
